The results in this text go back to patent US7745578B2, “Fugetactic proteins, compositions and methods of use” (The General Hospital Corporation, priority 2003, dated 2010).

In data set [1] the test system is T-cell infiltration into the peritoneal cavity. Put plainly: Intraperitoneal injection of conditioned media and analysis of lymphocyte infiltration. Also on record: species or system BALB/c-DO11 mice. The conditions noted are these: after immunoprecipitation of HSP90α from EL-4 CM with a monoclonal antibody; immune challenge in vivo. The method, then:
BALB/c-DO11 mice (kindly provided by Dr. Iacomini, Massachusetts General Hospital) were primed by subcutaneous injection with 100 μl of ovalbumin (ICN Biomedicals; Costa Mesa, Calif.) dissolved in Freund's complete adjuvant (Pierce Biotechnology; Rockford, Ill.) at a concentration 1 mg/ml. Three days later, mice were injected intraperitoneally with 250 μl of ovalbumin dissolved in sterile water at concentration a 0.4 mg/ml. 24 hours later, experimental mice were injected intraperitoneally with 250 μl of EL4CM24, while control mice were injected intraperitoneally with 250 μl of HSF media or protease treated EL4CM24. 24 hours later, cells were extracted from the intraperitoneal space by lavage with 5 ml of cold phosphate buffered saline (Mediatech; Herndon, Va.) and aspiration with a 10 ml syringe and 21-gauge needle. Peritoneal lavage cells were counted on a hemocytometer and then immuno-stained for anti-CD3, CD4, CD8 and TCR-kj-OVA lymphocyte expression (BD BioSciences; San Jose, Calif.) and anti-CD4 (Caltag Laboratories; Burlingame, Calif.) with antibodies labelled with Percp and PE (phytoerythrin) known fluorophor labels. T-cells expressing CD3+, CD3+ CD4+, CD3+ CD8+, CD3+ TCR-kj-OVA were then determined by FACS analysis.

The test system of the next data set is EL4 cells. Description: Viability of EL4 cells after inhibitor treatment. Type of data set: cell-based. Conditions: EL4 cells in HSF, Brefeldin A 10 μg/ml for 24 hours. The method, then:
EL4CM24 was heat inactivated at 42° C. for 1 hour prior to being used in the transmigration assays described above. […] EL4CM24 was incubated with hydrated proteinase K agarose (Sigma-Aldrich; St. Louis, Mo.) at 1 mg/ml for 1 hour at 37° C. in a 5% CO2 humidified incubator then filtered through a 0.2 μm pore-size filter prior to being used in the transmigration and intraperitoneal assays. Murine T-cells were incubated with pertussis toxin (Sigma-Aldrich; St. Louis, Mo.) at 100 ng/ml for 1 hour at 37° C. in a 5% CO2 humidified incubator, prior to being used in the transmigration assays. EL4CM24 was incubated with radiciol (Sigma-Aldrich; St. Louis, Mo.) for two hours at room temperature at concentrations 0.1 μg/ml and 7.3 μg/ml. The transmigration was then carried out using the EL4CM24 mixture. As a control, transmigration assays were also carried out using gradients of HSF media supplemented with 7.3 μg/ml of radicol or using EL4CM24-radicicol mixtures from which excess radiciol had been removed using 5 kDa size exclusion Centricon Ultrafree filters (Millipore; Billerica, Mass.). EL4 cells in HSF were also exposed to Geldanamycin at 1.2 μM or 200 nM prior to use of the CM in transmigration assays. EL4 cells in HSF were also exposed to Brefeldin A at 10 μg/ml overnight for a full 24 hours prior to use of the EL4CM24 in transmigration assays. […]

For a further data set, the system named is murine T-cells. Put plainly: Quantitative transmigration assay (ChemoTx), negative gradients of EL4 conditioned media. The class given is cell-based, C57BL/6 mice. The conditions noted are these: compared with untreated EL4CM24. The method, then:
C57BL/6 mice (4 to 8 weeks old) (Jackson Laboratories; Bar Harbor Me.) were euthanized, and dissection of superficial cervical, axillary, brachial and inguinal lymph nodes was performed under sterile conditions. Dissected lymph nodes were then physically disaggregated and a cell suspension generated. The cell suspension was then enriched for T cells by depletion of non-T cells using MACS Pan T cell isolation kit for mouse leukocytes (Miltenyi Biotec; Auburn, Calif.).
Quantitative transmigration assays were carried out as described previously. In brief, ChemoTx chemotaxis 30 μl well plates with 3 μm pore size filters (Neuro Probe; Gaithersburg, Md.) were used. 20,000 murine T-cells were loaded in the upper chamber of the ChemoTx system and subjected to positive, negative and uniform gradients of EL4CM24 in a standard checkerboard analysis of cell migration. The peak concentrations used in each gradient were 1 in 2, 1 in 10, and 1 in 100 dilutions of EL4CM24 with 10.5 media; Isocove's supplemented with 0.5% fetal calf serum, 50 units/ml Penicillin, 50 μg/ml Streptomycin and 292 μg/ml L-Glutamine (Mediatech; Herndon, Va.). […] The chemotactic index was calculated as the quotient of the average number of cells migrating in response to EL4CM24 and the average number of cells migrating in response to media alone. […]

“HSP90α: heat shock protein in EL-4 conditioned medium, removed by immunoprecipitation with a monoclonal antibody”: the “reduction in the fugetactic effect of the CM on T-cells infiltrating the peritoneal cavity” value in data set [1] is on record as “four-fold reduction”.
In the case of `C[C@H]1CCC/C=C/[C@@H]2C[C@H](O)C[C@H]2[C@H](O)/C=C/C(=O)O1` [Brefeldin A], the viability entry in the data set with EL4 cells is “Greater than 65%”.
In the case of `C[C@@H]1C[C@H]2O[C@@H]2/C=C\C=C\C(=O)Cc2c(Cl)c(O)cc(O)c2C(=O)O1` [radicicol], the “level of migration of lymphocytes” value with murine T-cells is listed as “not significantly reduced”.
For the compound pertussis toxin, the “level of migration of lymphocytes” value with murine T-cells is on record as “significantly reduced”.
